We go through three compounds from patent US20240299492A1, “COMBINATION THERAPIES WITH SIRP ALPHA-BASED CHIMERIC PROTEINS” (Shattuck Labs, Inc., priority 2021, published 2024).

Entries after “also recorded” stand apart in the source; their conditions may differ.

The test system of assay [1] is calreticulin (CRT). Put plainly: Surface expression of calreticulin in Kasumi-1 cells (flow cytometry). To be noted: 15 μM or 50 μM APR-246, overnight; FIG. 12B. Format: cell-based, human. The protocol:
(§1) Briefly, the Kasumi-1 human acute myelocytic leukemia (AML) cells were incubated overnight in the presence of vehicle only control, 15 μM APR-246, or 50 μM APR-246. The following day, the Kasumi-1 cells were analyzed by flow cytometry for surface expression of p53 and calreticulin (CRT).
A general note: A flow cytometer gives signals particle by particle.

The next assay concerns p53. Put plainly: Surface expression of p53 in Kasumi-1 cells (flow cytometry). Format: cell-based, human. To be noted: 15 μM or 50 μM APR-246, overnight; FIG. 12A. On the procedure: as §1
Assay [2] has as its system CD47. As to the kind of experiment: Surface expression of CD47 in Kasumi-3 cells (flow cytometry). Format: cell-based, human. To be noted: 1 μM, overnight; FIG. 11B. On the procedure:
(§2) In another experiment, the Kasumi-3 human acute myelocytic leukemia (AML) cells were incubated overnight in the presence of vehicle only control, 1 μM pevonedistat (MLN4924) or […]. The following day, the Kasumi-3 cells were analyzed by flow cytometry for surface expression of CD47 or calreticulin (CRT).

The next assay has as its system A20 lymphoma cells. As to the kind of experiment: In vivo anti-tumor efficacy, A20 lymphoma cell allograft mouse model. Also noted: species or system BALB/C mice. As to conditions: day 12; 1 mg/kg azacitidine (days 0-4), 4 mg/kg pevonedistat (MLN4924) (days 0-3), 200 μg SIRPα-Fc-CD40L (mSIRPα-Fc-CD40L; days 0, 3, 6), intraperitoneal; FIG. 13C. On the procedure: The efficacy of the SIRPα-Fc-CD40L chimeric protein was evaluated in combination with an immune checkpoint inhibitor. Towards that, the ability of an anti-PD-L1 antibody and chimeric proteins to target and reduce tumor volume in vivo was determined. Briefly, BALB/C mice were inoculated with 1×10^6 A20 lymphoma cells. When tumor volumes were approximately 75 to 80 mm^3 (day 0), the mice were randomly distributed in the following treatment groups: (1) vehicle only control, (2) 200 μg of the mouse SIRPα-Fc-CD40L chimeric protein alone, (3) 100 μg an anti-PD-L1 antibody (clone 10F.9G2), and (4) a combination 200 μg of the SIRPα-Fc-CD40L chimeric protein and 100 μg the anti-PD-L1 antibody. […] Tumors were measured with electronic calipers on day 12 and plotted using the GraphPad Prism software. […]
The efficacy of the SIRPα-Fc-CD40L chimeric protein was evaluated in combination with an antimetabolite/DNA synthesis inhibitor. Towards that, the ability of cytarabine and the chimeric protein to target and reduce tumor volume in vivo was determined. […] Tumors were measured with electronic calipers on day 12 and plotted using the GraphPad Prism software. […]
The efficacy of the SIRPα-Fc-CD40L chimeric protein was evaluated in combination with a hypomethylating agent/an epigenetic regulator and/or a protein neddylation inhibitor. […]

The subject of assay [3] is calreticulin (CRT). Put plainly: Surface expression of calreticulin in Kasumi-3 cells (flow cytometry), Example 17. To be noted: 1 μM, overnight; FIG. 11D. Format: cell-based, human. The protocol:
as §2

In assay [4] the test system is calreticulin (CRT). As to the kind of experiment: Surface expression of calreticulin in K652 cells (flow cytometry). Format: cell-based, human. To be noted: 1 μM, overnight; FIG. 11C. The protocol: (§3) Briefly, the K652 human chronic myelogenous leukemia cells were incubated overnight in the presence of vehicle only control, 1 μM azacitidine or 1 μM pevonedistat. The following day, the K652 cells were analyzed by flow cytometry for surface expression of CD47 or calreticulin (CRT).

Assay [5] concerns CD47. Put plainly: Surface expression of CD47 in K652 cells (flow cytometry). Format: cell-based, human. To be noted: 1 μM, overnight; FIG. 11A. The protocol: as §3
A further assay deals with Kasumi-3 AML cells. Put plainly: Phagocytosis of Kasumi-3 AML cells by human macrophages (flow cytometry): azacitidine and/or venetoclax and/or SIRPα-Fc-CD40L. Format: cell-based. To be noted: 50 μg/ml SIRPα-Fc-CD40L (p<0.05), 10 μM azacitidine (p<0.0001), 1 μM venetoclax (p<0.05); each combination p<0.0001; 4 hours; FIG. 14C. The protocol:
Briefly, the Kasumi-3 AML cells were labeled with a green fluorescent tracker and co-cultured with human macrophages and treated with (1) vehicle alone control, (2) 50 μg/ml of the SIRPα-Fc-CD40L chimeric protein, (3) 10 μM azacitidine, (4) 50 μg/ml of the SIRPα-Fc-CD40L chimeric protein+10 μM azacitidine, (5) 1 μM venetoclax, (6) 50 μg/ml of the SIRPα-Fc-CD40L chimeric protein+1 μM venetoclax, or (7) 50 μg/ml of the SIRPα-Fc-CD40L chimeric protein+1 μM venetoclax+10 μM azacitidine. The cells were incubated at 37° C. in the presence of 5% CO2 for 4 hours. After this incubation, the cells were harvested and treated with an anti-CD11b antibody (a macrophage marker) and were analyzed using flow cytometry. Positive phagocytosis was determined by the overlap in signals of tumor (the green fluorescent tracker) and macrophage (anti-CD11b antibody staining). A phagocytosis index was calculated by setting the maximum phagocytosis value to 1, and then normalizing all other replicates accordingly. The phagocytosis index was plotted for the indicated treatments.

For the next assay, the system named is annexin V. Put plainly: Surface expression of annexin V in Kasumi-3 cells (flow cytometry). To be noted: increasing amounts, overnight; FIG. 14A. Format: cell-based, human. The protocol:
(§4) The surface expression of apoptosis marker […] or the […] protein calreticulin (CRT) was studied. Briefly, the Kasumi-3 cells were incubated overnight in the presence of vehicle only control, increasing amounts of azacitidine or venetoclax, or a combination of azacitidine and venetoclax. The following day, the cells were analyzed by flow cytometry for surface expression of annexin or calreticulin (CRT). […] In addition, except for very high concentrations of azacitidine and venetoclax (100 μM each), the apoptosis induced by azacitidine and venetoclax was not additive compared to corresponding single treatments (FIG. 14A). […] In addition, except for very high concentrations of azacitidine and venetoclax (100 μM each), the apoptosis induced by azacitidine and venetoclax was not additive compared to corresponding single treatments (FIG. 14B).

In assay [6] the test system is calreticulin (CRT). As to the kind of experiment: Surface expression of calreticulin in Kasumi-3 cells (flow cytometry), Example 19. Format: cell-based, human. To be noted: increasing amounts, overnight; FIG. 14B. On the procedure:
as §4

Assay [7] deals with Kasumi-3 human acute myelocytic leukemia (AML) cells. As to the kind of experiment: Phagocytosis of Kasumi-3 cells by human macrophages (flow cytometry): azacitidine and/or SIRPα-Fc-CD40L. Format: cell-based. As to conditions: 0.1 pM azacitidine overnight and/or SIRPα-Fc-CD40L for 4 hours; combination p<0.0001 vs control; FIG. 2B. On the procedure:
(§5) In another experiment, the Kasumi-3 human acute myelocytic leukemia (AML) cells were labeled with a green fluorescent tracker and treated with vehicle alone control or 0.1 pM azacitidine overnight. The following day, the tumor cells were washed in PBS and then co-cultured with human macrophages with or without the SIRPα-Fc-CD40L chimeric protein for 4 hours at 37° C. in the presence of 5% CO2. After this incubation, the cells were harvested and treated with an anti-CD11b antibody (a macrophage marker) and were analyzed using flow cytometry. Positive phagocytosis was determined by the overlap in signals of tumor (the green fluorescent tracker) and macrophage (anti-CD11b antibody staining). A phagocytosis index was calculated by setting the maximum phagocytosis value to 1, and then normalizing all other replicates accordingly. The phagocytosis index was plotted for the indicated treatments.

The test system of assay [8] is K652 human chronic myelogenous leukemia (CML) cells. As to the kind of experiment: Phagocytosis of K652 cells by human macrophages (flow cytometry): azacitidine and/or SIRPα-Fc-CD40L. Format: cell-based. As to conditions: 0.1 μM azacitidine overnight and/or SIRPα-Fc-CD40L for 4 hours; combination p<0.001 vs control; FIG. 2A. The protocol:
as §5, with “Briefly,” for “In another experiment,”, “K652” for “Kasumi-3”, “chronic myelogenous” for “acute myelocytic”, “(CML)” for “(AML)”, “μM” for “pM”

On to `COCC1(CO)C(=O)C2CCN1CC2` (stereo not drawn) [APR-246], for which, in the assay with calreticulin (CRT) [1], the “expression of calreticulin compared to the vehicle only-treated Kasumi-1 cells” value is reported as “induced the expression”. The “expression of p53 compared to the vehicle only-treated Kasumi-1 cells” value in the assay on p53 is on record as “dose-dependent induction”.
For the compound `NS(=O)(=O)OC[C@@H]1C[C@@H](n2ccc3c(N[C@H]4CCc5ccccc54)ncnc32)C[C@@H]1O` [pevonedistat (MLN4924), pevonedistat], the “surface expression of CD47 compared to the vehicle only-treated Kasumi-3 cells” value with CD47 [2] is given as “induced the expression”. In addition, in the assay on A20 lymphoma cells, the tumor size result was “reduction in tumor size”. Moreover, the “surface expression of calreticulin, a pro-phagocytic marker, compared to the vehicle only-treated Kasumi-3 cells” value in the assay with calreticulin (CRT) [3] was “induced the expression”. Also, the “surface expression of calreticulin, a pro-phagocytic marker, compared to the vehicle only-treated K652 cells” value with calreticulin (CRT) [4] is “induced the expression”. The “surface expression of CD47 compared to the vehicle only-treated K652 cells” value in the assay on CD47 [5] was “induced the expression”.
`Nc1ncn([C@@H]2O[C@H](CO)[C@@H](O)[C@H]2O)c(=O)n1` [azacitidine]: in the assay with A20 lymphoma cells, the tumor size entry is “reduction in tumor size”. Further, the “level of phagocytosis (phagocytosis index) compared to the vehicle only-treated Kasumi-3 cells” value in the assay with Kasumi-3 AML cells was “increased level of phagocytosis”. Moreover, in the assay on annexin V, the “expression of annexin V (apoptosis marker) compared to the vehicle only-treated Kasumi-3 cells” value was “induced the expression of annexin V in Kasumi-3 cells in a dose-dependent manner; also recorded: increased the expression”. Moreover, the “surface expression of calreticulin, a pro-phagocytic marker, compared to the vehicle only-treated K652 cells” value in the assay on calreticulin (CRT) [4] is “induced the expression”. Further, the “expression of calreticulin compared to the vehicle only-treated Kasumi-3 cells” value with calreticulin (CRT) [6] is “induced the expression of calreticulin in Kasumi-3 cells in a dose-dependent manner; also recorded: increased the expression”. Further, the “level of phagocytosis (phagocytosis index) compared to the control Kasumi-3 cells” value in assay [7] was “slight increase in the level of phagocytosis”. Also, the “level of phagocytosis (phagocytosis index) compared to the control K652 cells” value in [8] is listed as “increased level of phagocytosis”. The “surface expression of CD47 compared to the vehicle only-treated K652 cells” value in the assay on CD47 [5] is given as “induced the expression”.
